Reference: patent publication US10499642B2, “Isoxazoline-substituted benzamides and analogues as insecticides” (SYNGENTA PARTICIPATIONS AG, priority 2015, dated 2019)
Read-outs that look alike come from different tables or passages of the source.

How the values were obtained:
Assay type in all cases: in vivo
Plutella xylostella = Plutella xylostella (diamond back moth) artificial diet test; settings: 120 h, read-out: effect in at least one of the two categories (mortality or growth inhibition)
How it was run: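 At a 200 ppm rate, test solutions were applied to artificial diet and allowed to dry before second-instar larvae were added. Five days later, larval mortality and growth inhibition were rated against untreated samples.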

Tetranychus urticae = Tetranychus urticae (two-spotted spider mite) bean leaf disc test; settings: foliar, 192 h
Method: Tetranychus urticae (Two-Spotted Spider Mite):
Bean leaf discs on agar in 24-well microtiter plates were sprayed with aqueous test solutions prepared from 10′000 ppm DMSO stock solutions. After drying the leaf discs were infested with a mite population of mixed ages. The samples were assessed for mortality on mixed population (mobile stages) 8 days after infestation.

Diabrotica Balteata = assay: Diabrotica balteata (corn root worm) maize sprout test; settings: 96 h, read-out: effect in at least one of the two categories (mortality or growth inhibition)
How it was run: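 Scoring covered both mortality and growth inhibition relative to untreated controls, 4 days post-infestation. Test solutions at 200 ppm, diluted in water from 10′000 ppm DMSO stocks, were sprayed onto agar-held maize sprouts, which after drying received 6 to 10 L2 larvae each well.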

Spodoptera littoralis = Spodoptera littoralis (Egyptian cotton leaf worm) cotton leaf disc test; settings: foliar, 72 h, read-out: control (at least one of mortality, anti-feedant effect, and growth inhibition)
How it was run: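 Five first-instar larvae per disc were placed on dried, sprayed cotton leaf discs held on agar. Test solutions were aqueous, made from 10′000 ppm DMSO stocks. At day 3, control was counted when mortality, feeding deterrence or growth inhibition exceeded the untreated discs.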

Thrips tabaci = Thrips tabaci (onion thrips) sunflower leaf disc test; settings: foliar, 144 h
Method: Thrips tabaci (Onion Thrips):
Sunflower leaf discs were placed on agar in 24-well microtiter plates and sprayed with aqueous test solutions prepared from 10′000 ppm DMSO stock solutions. After drying the leaf discs were infested with a thrips population of mixed ages. The samples were assessed for mortality 6 days after infestation.

Myzus persicae = Myzus persicae (green peach aphid) sunflower leaf disc test; settings: foliar, 144 h
Method: Myzus persicae (Green Peach Aphid):
Sunflower leaf discs were placed on agar in a 24-well microtiter plate and sprayed with test solutions at an application rate of 200 ppm. After drying, the leaf discs were infested with an aphid population of mixed ages. After an incubation period of 6 days after treatment, samples were checked for mortality. The following compounds gave at least 80% mortality of Myzus persicae: […]

Cc1cc(C2=NO[C@@](c3cc(Cl)c(Cl)c(Cl)c3)(C(F)(F)F)C2)ccc1C(=O)N(C=O)C1CC(Cl)=NO1 (stereo partly drawn) [Compound A010, N-(3-chloro-4,5-dihydroisoxazol-5-yl)-N-formyl-2-methyl-4-[(5S)-5-(3,4,5-trichlorophenyl)-5-(trifluoromethyl)-4H-isoxazol-3-yl]benzamide]
≥ 80%: percent effect (mortality or growth inhibition) at 200 ppm (Plutella xylostella) | mortality at 200 ppm (Tetranychus urticae) | percent effect (mortality or growth inhibition) at 200 ppm (Diabrotica Balteata) | percent control (mortality, anti-feedant effect or growth inhibition) at 200 ppm (Spodoptera littoralis) | mortality at 200 ppm (Thrips tabaci) | mortality at 200 ppm (Myzus persicae)

CCC1(COC2=NOC(NC(=O)c3ccc(C4=NO[C@@](c5cc(Cl)c(Cl)c(Cl)c5)(C(F)(F)F)C4)cc3C)C2)COC1 (stereo partly drawn) [Compound A122, N-[3-[(3-ethyloxetan-3-yl)methoxy]-4,5-dihydroisoxazol-5-yl]-2-methyl-4-[(5S)-5-(3,4,5-trichlorophenyl)-5-(trifluoromethyl)-4H-isoxazol-3-yl]benzamide]
≥ 80%: percent effect (mortality or growth inhibition) at 200 ppm (Plutella xylostella) | mortality at 200 ppm (Tetranychus urticae) | percent effect (mortality or growth inhibition) at 200 ppm (Diabrotica Balteata) | percent control (mortality, anti-feedant effect or growth inhibition) at 200 ppm (Spodoptera littoralis) | mortality at 200 ppm (Thrips tabaci) | mortality at 200 ppm (Myzus persicae)

COC1=NO[C@H](NC(=O)c2ccc(C3=NO[C@@](c4cc(Cl)c(Cl)c(Cl)c4)(C(F)(F)F)C3)cc2C)C1 (single isomer, unassigned) [Compound A148]
≥ 80%: percent effect (mortality or growth inhibition) at 200 ppm (Plutella xylostella) | mortality at 200 ppm (Tetranychus urticae) | percent effect (mortality or growth inhibition) at 200 ppm (Diabrotica Balteata) | percent control (mortality, anti-feedant effect or growth inhibition) at 200 ppm (Spodoptera littoralis) | mortality at 200 ppm (Thrips tabaci) | mortality at 200 ppm (Myzus persicae)

COC1=NOC(NC(=O)c2ccc(C3=NO[C@@](c4cc(Br)cc(C(F)(F)F)c4)(C(F)(F)F)C3)cc2C)C1 (stereo partly drawn) [Compound A044]
≥ 80%: percent effect (mortality or growth inhibition) at 200 ppm (Plutella xylostella; application rate 200 ppm, artificial diet, L2 larvae, 5 days after infestation) | mortality at 200 ppm (Tetranychus urticae; application rate 200 ppm, bean leaf discs, mixed population (mobile stages), 8 days after infestation, read-out: mortality) | percent effect (mortality or growth inhibition) at 200 ppm (Diabrotica Balteata; application rate 200 ppm, maize sprouts, L2 larvae, 4 days after infestation) | percent control (mortality, anti-feedant effect or growth inhibition) at 200 ppm (Spodoptera littoralis; application rate 200 ppm, cotton leaf discs, L1 larvae, 3 days after infestation) | mortality at 200 ppm (Thrips tabaci; application rate 200 ppm, sunflower leaf discs, population of mixed ages, 6 days after infestation, read-out: mortality) | mortality at 200 ppm (Myzus persicae; application rate 200 ppm, sunflower leaf discs, population of mixed ages, 6 days after treatment, read-out: mortality)

CC(=O)C1=NOC(NC(=O)c2ccc(C3=NO[C@@](c4cc(Cl)c(F)c(Cl)c4)(C(F)(F)F)C3)cc2C)C1 (stereo partly drawn) [Compound A015, N-(3-acetyl-4,5-dihydroisoxazol-5-yl)-4-[(5S)-5-(3,5-dichloro-4-fluoro-phenyl)-5-(trifluoromethyl)-4H-isoxazol-3-yl]-2-methyl-benzamide]
≥ 80%: percent effect (mortality or growth inhibition) at 200 ppm (Plutella xylostella) | mortality at 200 ppm (Tetranychus urticae) | percent effect (mortality or growth inhibition) at 200 ppm (Diabrotica Balteata) | percent control (mortality, anti-feedant effect or growth inhibition) at 200 ppm (Spodoptera littoralis) | mortality at 200 ppm (Thrips tabaci) | mortality at 200 ppm (Myzus persicae)

CC1=NOC(NC(=O)c2ccc(C3=NO[C@@](c4cc(Cl)c(Cl)c(Cl)c4)(C(F)(F)F)C3)cc2Br)C1 (stereo partly drawn) [Compound A037, 2-bromo-N-(3-methyl-4,5-dihydroisoxazol-5-yl)-4-[(5S)-5-(3,4,5-trichlorophenyl)-5-(trifluoromethyl)-4H-isoxazol-3-yl]benzamide]
≥ 80%: percent effect (mortality or growth inhibition) at 200 ppm (Plutella xylostella) | mortality at 200 ppm (Tetranychus urticae) | percent effect (mortality or growth inhibition) at 200 ppm (Diabrotica Balteata) | percent control (mortality, anti-feedant effect or growth inhibition) at 200 ppm (Spodoptera littoralis) | mortality at 200 ppm (Thrips tabaci) | mortality at 200 ppm (Myzus persicae)

Cc1cc(C2=NO[C@@](c3cc(Cl)c(F)c(Cl)c3)(C(F)(F)F)C2)ccc1C(=O)N(C=O)C1CC(Br)=NO1 (stereo partly drawn) [Compound A002, N-(3-bromo-4,5-dihydroisoxazol-5-yl)-4-[(5S)-5-(3,5-dichloro-4-fluoro-phenyl)-5-(trifluoromethyl)-4H-isoxazol-3-yl]-N-formyl-2-methyl-benzamide]
≥ 80%: percent effect (mortality or growth inhibition) at 200 ppm (Plutella xylostella) | mortality at 200 ppm (Tetranychus urticae) | percent effect (mortality or growth inhibition) at 200 ppm (Diabrotica Balteata) | percent control (mortality, anti-feedant effect or growth inhibition) at 200 ppm (Spodoptera littoralis) | mortality at 200 ppm (Thrips tabaci) | mortality at 200 ppm (Myzus persicae)

CCOC1=NOC(N(C(=O)OC(C)(C)C)C(=O)c2ccc(C3=NO[C@@](c4cc(Cl)c(F)c(Cl)c4)(C(F)(F)F)C3)cc2C)C1 (stereo partly drawn) [Compound A132, tert-butyl N-[4-[(5S)-5-(3,5-dichloro-4-fluoro-phenyl)-5-(trifluoromethyl)-4H-isoxazol-3-yl]-2-methyl-benzoyl]-N-(3-ethoxy-4,5-dihydroisoxazol-5-yl)carbamate]
≥ 80%: percent effect (mortality or growth inhibition) at 200 ppm (Plutella xylostella) | mortality at 200 ppm (Tetranychus urticae) | percent effect (mortality or growth inhibition) at 200 ppm (Diabrotica Balteata) | percent control (mortality, anti-feedant effect or growth inhibition) at 200 ppm (Spodoptera littoralis) | mortality at 200 ppm (Thrips tabaci) | mortality at 200 ppm (Myzus persicae)

CCOC1=NOC(NC(=O)c2ccc(C3=NO[C@@](c4cc(Cl)c(Cl)c(Cl)c4)(C(F)(F)F)C3)cc2C)C1 (stereo partly drawn) [Compound A059]
≥ 80%: percent effect (mortality or growth inhibition) at 200 ppm (Plutella xylostella) | mortality at 200 ppm (Tetranychus urticae) | percent effect (mortality or growth inhibition) at 200 ppm (Diabrotica Balteata) | percent control (mortality, anti-feedant effect or growth inhibition) at 200 ppm (Spodoptera littoralis) | mortality at 200 ppm (Thrips tabaci) | mortality at 200 ppm (Myzus persicae)
